# Results taken from US9221822B2, “Thiazolopyrimidine modulators as immunosuppressive agents” (Katholieke Universiteit Leuven, K.U.Leuven R&D, priority 2009, dated 2015).
# Legend:
# [1] = tested on: cardiac allograft (C57BL/6 H-2b donor heart in Balb/c H-2d recipient); assay: mouse model of cardiac allograft transplantation (graft survival); type: in vivo
# Method: Inbreed C57BL/6 H-2^b and Balb/c H-2^d female mice, 8-10 weeks old, 20-25 g, were used as donor and recipient, respectively. Heterotopic heart transplantation was performed by implanting the donor heart on the neck of recipients using conventional microsurgery techniques. Graft beating was checked daily by inspection and palpation. Cessation of beating indicated graft rejection, which was confirmed by histological examination. Housing and all experimental animal procedures were approved by the Institutional Animal Care and Research Advisory Committee of the KU Leuven.
# [2] = tested on: Human peripheral blood mononuclear cells (PBMCs) as Responder cells, RPMI 1788 Stimulator cells; assay: Mixed Lymphocyte Reaction (MLR) test; type: cell-based; details: Homo sapiens, RPMI-1788, lowest concentration giving 50% inhibition of the MLR; 6 days coculture, 3H-thymidine incorporation
# How it was run: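 Human PBMC responders (0.12×10^6) were cocultured 6 days with mitomycin C-treated RPMI 1788 stimulators (0.045×10^6) and compound in RPMI 1640 with 10% FCS, in triplicate. A ^3H-thymidine pulse on day 5, harvested 18 h later, measured proliferation (cpm), converted to % inhibition versus a compound-free MLR.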
smiles,measurement,setting,value
"CCOc1nc(N)nc2sc(-c3ccc(F)cc3)cc12 [Example 363, 4-ethoxy-6-(4-fluorophenyl)thieno[2,3-d]pyrimidin-2-amine]",melting point,,142 °C
"Nc1nc(N2CCN(C(=O)COc3ccc(Cl)cc3)CC2)c2nc(-c3cccnc3)sc2n1 [Example 121a, 5-amino-7-[4-(4-chlorophenoxyacetyl)piperazin-1-yl]-2-(pyridine-3-yl)thiazolo[5,4-d]pyrimidine]",grafts with continuous survival during treatment,"[1]; Example 448, 40 mg/kg by daily oral gavage until day 30, n=4",3 out of 4
same,graft beating after withdrawal of the treatment,"[1]; Example 448, 40 mg/kg oral, treatment stopped day 30",continued beating after withdrawal of the treatment (up to 60 days)
same,IC50,[2],50 nM
"Cc1ccc(NC(=O)N2CCN(c3nc(N)nc4sc(-c5cccnc5)nc34)CC2)cc1 [Example 222, 4-(5-amino-2-(pyridin-3-yl)thiazolo[5,4-d]pyrimidin-7-yl)-N-p-tolylpiperazine-1-carboxamide]",graft survival,"[1]; Example 449, 20 mg/kg per day",up to 13 days
same,grafts continuously functioning after stopping the treatment on day 30,"[1]; Example 449, 40 mg/kg per day",3/4
same,grafts with continuous survival during treatment,"[1]; Example 449, 40 mg/kg per day by daily gavage until day 30",4/6
